Experimental data from ChEMBL document CHEMBL3045892, “Synthesis and evaluation of in vitro antimicrobial activity of novel 2,3-disubstituted-4-thiazolidinones from fatty acid hydrazides” (2013).
Values after ≈ are worked out from the molar mass of the structure shown.

Assays:
Assay type in all cases: functional
Escherichia coli [1] = assay: Antibacterial activity against Escherichia coli ATCC 25922 after 24 hr by disk diffusion method
Escherichia coli [2] = assay: Antibacterial activity against Escherichia coli ATCC 25922 incubated for 24 hr followed by subculturing measured after 18 to 24 hr
[3] = system: Trichophyton mentagrophytes; assay: Antifungal activity against Trichophyton mentagrophytes by disk diffusion method
Streptococcus pyogenes [4] = assay: Antibacterial activity against Streptococcus pyogenes after 24 hr by disk diffusion method
Talaromyces marneffei [5] = assay: Antifungal activity against Talaromyces marneffei incubated for 48 hr followed by subculturing measured after 48 hr
Talaromyces marneffei [6] = assay: Antifungal activity against Talaromyces marneffei after 48 hr
Aspergillus fumigatus [7] = assay: Antifungal activity against Aspergillus fumigatus by disk diffusion method
Klebsiella pneumoniae [8] = assay: Antibacterial activity against Klebsiella pneumoniae clinical isolate after 24 hr by disk diffusion method
[9] = system: Trichophyton mentagrophytes; assay: Antifungal activity against Trichophyton mentagrophytes after 48 hr
Pseudomonas aeruginosa [10] = assay: Antibacterial activity against Pseudomonas aeruginosa ATCC 27853 after 24 hr by broth dilution method; settings: ATCC 27853, 24 h
[11] = system: Trichophyton mentagrophytes; assay: Antifungal activity against Trichophyton mentagrophytes incubated for 48 hr followed by subculturing measured after 48 hr
Streptococcus pyogenes [12] = assay: Antibacterial activity against Streptococcus pyogenes incubated for 24 hr followed by subculturing measured after 18 to 24 hr
Streptococcus pyogenes [13] = assay: Antibacterial activity against Streptococcus pyogenes after 24 hr by broth dilution method
Pseudomonas aeruginosa [14] = assay: Antibacterial activity against Pseudomonas aeruginosa ATCC 27853 incubated for 24 hr followed by subculturing measured after 18 to 24 hr
Escherichia coli [15] = assay: Antibacterial activity against Escherichia coli ATCC 25922 after 24 hr by broth dilution method; settings: ATCC 25922, 24 h
Aspergillus fumigatus [16] = assay: Antifungal activity against Aspergillus fumigatus incubated for 48 hr followed by subculturing measured after 48 hr
Talaromyces marneffei [17] = assay: Antifungal activity against Talaromyces marneffei by disk diffusion method
Candida albicans [18] = assay: Antifungal activity against Candida albicans incubated for 48 hr followed by subculturing measured after 48 hr
Aspergillus fumigatus [19] = assay: Antifungal activity against Aspergillus fumigatus after 48 hr
Pseudomonas aeruginosa [20] = assay: Antibacterial activity against Pseudomonas aeruginosa ATCC 27853 after 24 hr by disk diffusion method
Candida albicans [21] = assay: Antifungal activity against Candida albicans by disk diffusion method
Candida albicans [22] = assay: Antifungal activity against Candida albicans after 48 hr
Klebsiella pneumoniae [23] = assay: Antibacterial activity against Klebsiella pneumoniae clinical isolate after 24 hr by broth dilution method
Klebsiella pneumoniae [24] = assay: Antibacterial activity against Klebsiella pneumoniae clinical isolate incubated for 24 hr followed by subculturing measured after 18 to 24 hr
Staphylococcus aureus [25] = assay: Antibacterial activity against methicillin-resistant Staphylococcus aureus incubated for 24 hr followed by subculturing measured after 18 to 24 hr
Pseudomonas aeruginosa [26] = assay: Antibacterial activity against Pseudomonas aeruginosa ATCC 27853 at 30 ug/disk after 24 hr by disk diffusion method; settings: ATCC 27853, 24 h, read-out: DIZ
Staphylococcus aureus [27] = assay: Antibacterial activity against methicillin-resistant Staphylococcus aureus after 24 hr by broth dilution method
Escherichia coli [28] = assay: Antibacterial activity against Escherichia coli ATCC 25922 at 30 uig/disk after 24 hr by disk diffusion method
Staphylococcus aureus [29] = assay: Antibacterial activity against methicillin-resistant Staphylococcus aureus at 30 ug/disk after 24 hr by disk diffusion method; settings: read-out: DIZ
Streptococcus pyogenes [30] = assay: Antibacterial activity against Streptococcus pyogenes at 30 ug/disk after 24 hr by disk diffusion method; settings: read-out: DIZ
Klebsiella pneumoniae [31] = assay: Antibacterial activity against Klebsiella pneumoniae clinical isolate at 30 ug/disk after 24 hr by disk diffusion method; settings: read-out: DIZ

SMILES | MIC (Talaromyces marneffei [6]) | MIC [9] | MIC (Pseudomonas aeruginosa [10]) | MIC (Streptococcus pyogenes [13]) | MIC (Escherichia coli [15]) | MIC (Aspergillus fumigatus [19]) | MIC (Candida albicans [22]) | MIC (Klebsiella pneumoniae [23]) | MBC (Escherichia coli [2]) | diameter of the inhibition zone (DIZ) [3] | MFC (Talaromyces marneffei [5]) | diameter of the inhibition zone (DIZ) (Aspergillus fumigatus [7]) | MFC [11] | MBC (Streptococcus pyogenes [12]) | MBC (Pseudomonas aeruginosa [14]) | MFC (Aspergillus fumigatus [16]) | diameter of the inhibition zone (DIZ) (Talaromyces marneffei [17]) | MFC (Candida albicans [18]) | diameter of the inhibition zone (DIZ) (Candida albicans [21]) | MBC (Klebsiella pneumoniae [24]) | other results
COC1=CC(=O)C[C@@H](C)[C@]12Oc1c(Cl)c(OC)cc(OC)c1C2=O [GRISEOFULVIN] | 12.5 µg/mL (≈ 35.4 µM) | 6.25 µg/mL (≈ 17.7 µM) |  |  |  | 12.5 µg/mL (≈ 35.4 µM) | 6.25 µg/mL (≈ 17.7 µM) |  |  | 24 mm | 25 µg/mL (≈ 70.9 µM) | 27 mm | 25 µg/mL (≈ 70.9 µM) |  |  | 12.5 µg/mL (≈ 35.4 µM) | 20 mm | 25 µg/mL (≈ 70.9 µM) | 30 mm |  | 
O=C(N[C@H](CO)[C@H](O)c1ccc([N+](=O)[O-])cc1)C(Cl)Cl [CHLORAMPHENICOL] |  |  | 12.5 µg/mL (≈ 38.7 µM) | 12.5 µg/mL (≈ 38.7 µM) | 6.25 µg/mL (≈ 19.3 µM) |  |  | 6.25 µg/mL (≈ 19.3 µM) | 12.5 µg/mL (≈ 38.7 µM) |  |  |  |  | 12.5 µg/mL (≈ 38.7 µM) | 25 µg/mL (≈ 77.4 µM) |  |  |  |  | 25 µg/mL (≈ 77.4 µM) | MBC (Staphylococcus aureus [25]): 12.5 µg/mL (≈ 38.7 µM); zone of inhibition at 30 µg/disc (Pseudomonas aeruginosa [26]): 32 mm; MIC (Staphylococcus aureus [27]): 6.25 µg/mL (≈ 19.3 µM); diameter of the inhibition zone (DIZ) (Escherichia coli [28]): 27 mm; zone of inhibition at 30 µg/disc (Staphylococcus aureus [29]): 22 mm; zone of inhibition at 30 µg/disc (Streptococcus pyogenes [30]): 23 mm; zone of inhibition at 30 µg/disc (Klebsiella pneumoniae [31]): 19 mm
C=CCCCCCCCCC(=O)NN1C(=O)CSC1c1ccc(Cl)cc1 (configuration not stated) | 12.5 µg/mL (≈ 31.6 µM) | 12.5 µg/mL (≈ 31.6 µM) | 12.5 µg/mL (≈ 31.6 µM) | 25 µg/mL (≈ 63.3 µM) | 25 µg/mL (≈ 63.3 µM) | 12.6 µg/mL (≈ 31.8 µM) | 12.5 µg/mL (≈ 31.6 µM) | 25 µg/mL (≈ 63.3 µM) | 50 µg/mL (≈ 127 µM) | 19.2 mm | 25 µg/mL (≈ 63.3 µM) | 22.2 mm | 50 µg/mL (≈ 127 µM) | 50 µg/mL (≈ 127 µM) | 25 µg/mL (≈ 63.3 µM) | 25 µg/mL (≈ 63.3 µM) | 14.6 mm | 25 µg/mL (≈ 63.3 µM) | 27.1 mm | 50 µg/mL (≈ 127 µM) | diameter of the inhibition zone (DIZ) (Escherichia coli [1]): 19.8 mm; diameter of the inhibition zone (DIZ) (Streptococcus pyogenes [4]): 20.2 mm; diameter of the inhibition zone (DIZ) (Klebsiella pneumoniae [8]): 18.3 mm; diameter of the inhibition zone (DIZ) (Pseudomonas aeruginosa [20]): 22.3 mm

Second part, led by results:

MIC (Talaromyces marneffei [6]) | MIC [9] | MIC (Pseudomonas aeruginosa [10]) | MIC (Streptococcus pyogenes [13]) | MIC (Escherichia coli [15]) | MIC (Aspergillus fumigatus [19]) | MIC (Candida albicans [22]) | MIC (Klebsiella pneumoniae [23]) | SMILES | MBC (Escherichia coli [2]) | diameter of the inhibition zone (DIZ) [3] | MFC (Talaromyces marneffei [5]) | diameter of the inhibition zone (DIZ) (Aspergillus fumigatus [7]) | MFC [11] | MBC (Streptococcus pyogenes [12]) | MBC (Pseudomonas aeruginosa [14]) | MFC (Aspergillus fumigatus [16]) | diameter of the inhibition zone (DIZ) (Talaromyces marneffei [17]) | MFC (Candida albicans [18]) | diameter of the inhibition zone (DIZ) (Candida albicans [21]) | MBC (Klebsiella pneumoniae [24]) | other results
25 µg/mL (≈ 50.7 µM) | 25 µg/mL (≈ 50.7 µM) | 50 µg/mL (≈ 101 µM) | 25 µg/mL (≈ 50.7 µM) | 25 µg/mL (≈ 50.7 µM) | 12.5 µg/mL (≈ 25.3 µM) | 12.5 µg/mL (≈ 25.3 µM) | 25 µg/mL (≈ 50.7 µM) | CCCCCCCC/C=C\CCCCCCCC(=O)NN1C(=O)CSC1c1ccc(Cl)cc1 (configuration not stated) | 100 µg/mL (≈ 203 µM) | 17.6 mm | 50 µg/mL (≈ 101 µM) | 21.4 mm | 50 µg/mL (≈ 101 µM) | 100 µg/mL (≈ 203 µM) | 100 µg/mL (≈ 203 µM) | 50 µg/mL (≈ 101 µM) | 14.1 mm | 50 µg/mL (≈ 101 µM) | 24.2 mm | 50 µg/mL (≈ 101 µM) | diameter of the inhibition zone (DIZ) (Escherichia coli [1]): 17.6 mm; diameter of the inhibition zone (DIZ) (Streptococcus pyogenes [4]): 18.1 mm; diameter of the inhibition zone (DIZ) (Klebsiella pneumoniae [8]): 17.1 mm; diameter of the inhibition zone (DIZ) (Pseudomonas aeruginosa [20]): 19.9 mm
25 µg/mL (≈ 49.1 µM) | 25 µg/mL (≈ 49.1 µM) | 50 µg/mL (≈ 98.2 µM) | 50 µg/mL (≈ 98.2 µM) | 50 µg/mL (≈ 98.2 µM) | 25 µg/mL (≈ 49.1 µM) | 25 µg/mL (≈ 49.1 µM) | 25 µg/mL (≈ 49.1 µM) | CCCCCC[C@@H](O)C/C=C\CCCCCCCC(=O)NN1C(=O)CSC1c1ccc(Cl)cc1 (some centres not stated) | > 100 µg/mL | 18.2 mm | 100 µg/mL (≈ 196 µM) | 20.6 mm | 50 µg/mL (≈ 98.2 µM) | 100 µg/mL (≈ 196 µM) | 100 µg/mL (≈ 196 µM) | 50 µg/mL (≈ 98.2 µM) | 14.4 mm | 50 µg/mL (≈ 98.2 µM) | 23.7 mm | 100 µg/mL (≈ 196 µM) | diameter of the inhibition zone (DIZ) (Escherichia coli [1]): 14.5 mm; diameter of the inhibition zone (DIZ) (Streptococcus pyogenes [4]): 17.1 mm; diameter of the inhibition zone (DIZ) (Klebsiella pneumoniae [8]): 14.5 mm; diameter of the inhibition zone (DIZ) (Pseudomonas aeruginosa [20]): 14.1 mm
12.5 µg/mL (≈ 26.8 µM) | 6.25 µg/mL (≈ 13.4 µM) | 12.5 µg/mL (≈ 26.8 µM) | 12.5 µg/mL (≈ 26.8 µM) | 12.5 µg/mL (≈ 26.8 µM) | 6.25 µg/mL (≈ 13.4 µM) | 6.25 µg/mL (≈ 13.4 µM) | 12.5 µg/mL (≈ 26.8 µM) | CCCCCCCCCCCCCCCC(=O)NN1C(=O)CSC1c1ccc(Cl)cc1 (configuration not stated) | 25 µg/mL (≈ 53.5 µM) | 19.5 mm | 25 µg/mL (≈ 53.5 µM) | 22.6 mm | 25 µg/mL (≈ 53.5 µM) | 25 µg/mL (≈ 53.5 µM) | 25 µg/mL (≈ 53.5 µM) | 25 µg/mL (≈ 53.5 µM) | 15.2 mm | 12.5 µg/mL (≈ 26.8 µM) | 27.3 mm | 50 µg/mL (≈ 107 µM) | diameter of the inhibition zone (DIZ) (Escherichia coli [1]): 23.3 mm; diameter of the inhibition zone (DIZ) (Streptococcus pyogenes [4]): 20.4 mm; diameter of the inhibition zone (DIZ) (Klebsiella pneumoniae [8]): 21.4 mm; diameter of the inhibition zone (DIZ) (Pseudomonas aeruginosa [20]): 27.2 mm
25 µg/mL (≈ 49.1 µM) | 25 µg/mL (≈ 49.1 µM) | 50 µg/mL (≈ 98.2 µM) | 25 µg/mL (≈ 49.1 µM) | 50 µg/mL (≈ 98.2 µM) | 25 µg/mL (≈ 49.1 µM) | 25 µg/mL (≈ 49.1 µM) | 50 µg/mL (≈ 98.2 µM) | CCCCC/C=C\CC[C@H](O)CCCCCCCC(=O)NN1C(=O)CSC1c1ccc(Cl)cc1 (some centres not stated) | 100 µg/mL (≈ 196 µM) | 14.8 mm | 100 µg/mL (≈ 196 µM) | 18.7 mm | 100 µg/mL (≈ 196 µM) | 100 µg/mL (≈ 196 µM) | 100 µg/mL (≈ 196 µM) | 100 µg/mL (≈ 196 µM) | 13.3 mm | 50 µg/mL (≈ 98.2 µM) | 21.2 mm | > 100 µg/mL | diameter of the inhibition zone (DIZ) (Escherichia coli [1]): 14.3 mm; diameter of the inhibition zone (DIZ) (Streptococcus pyogenes [4]): 15.5 mm; diameter of the inhibition zone (DIZ) (Klebsiella pneumoniae [8]): 13.9 mm; diameter of the inhibition zone (DIZ) (Pseudomonas aeruginosa [20]): 13.9 mm
